Assay results reported in US20210346329A1, “TCA CYCLE INTERMEDIATES AND METHODS OF USE THEREOF” (IMBRIA PHARMACEUTICALS, INC., priority 2018, published 2021).
Values joined by “and” are separate entries in the source; they are usually repeats but may differ in a detail not shown here. Equal entries are not always repeated. Where two headings read alike, the source gives them in different places. One block for each compound: values may come before it.

Key:
[1] = for Bioavailability: Oral 50 mg/kg vs IV 10 mg/kg
Description: Blood samples were collected up to 8 hours post-dose, and plasma concentrations of the test articles were determined by LC-MS/MS. Pharmacokinetic parameters were determined using Phoenix WinNonlin (v8.0) software.
Plasma samples were extracted and analyzed using the methods described in the section on Sample Extraction. All data are expressed as ng/mL of the free base. Samples that were below the limit of quantification were not used in the calculation of averages.
Pharmacokinetic parameters were determined with Phoenix WinNonlin (v8.0) software using a non-compartmental model. The maximum plasma concentrations (C0) after IV dosing were estimated by extrapolation of the first two time points back to t=0. The maximum plasma concentration (Cmax) and the time to reach maximum plasma concentration (Tmax) after PO dosing were observed from the data. The area under the time concentration curve (AUC) was calculated using the linear trapezoidal rule with calculation to the last quantifiable data point, and with extrapolation to infinity if applicable. […] Mean residence time, MRT, was calculated by dividing the area under the moment curve (AUMC) by the AUC. Clearance (CL) was calculated from dose/AUC. Steady-state volume of distribution (Vss) was calculated from CL*MRT (mean residence time). Bioavailability was determined by dividing the individual dose-normalized PO AUClast values by the average dose-normalized IV AUClast value. Any samples below the limit of quantitation (1 ng/mL) were treated as zero for pharmacokinetic data analysis.
Standards were prepared in Sprague-Dawley rat plasma containing sodium heparin as the anticoagulant. Working solutions were prepared in 50:50 acetonitrile:water and then added to the rat plasma to make calibration standards to final concentrations of 2000, 1000, 500, 100, 50.0, 10.0, 5.00, 2.50, and 1.00 ng/mL. Standards were treated identically to the study samples.
Plasma samples were manually extracted using acetonitrile in a 96-well plate as outlined in Table 15.

[2] = Plasma concentrations of radioactive material; assay type: in vivo, CD® rats; details: IV 10 mg/kg
Description: (§1) The plasma-time course, routes and rates of excretion, and tissue distribution of radioactivity following a single oral dose of ^14C-labeled citrate or single oral dose of ^14C-labeled succinate were analyzed in rats.
(§2) Formulations were prepared on the day prior to dosing.
(§3) CD® rats were obtained from Charles River Laboratories. Animals were 9-11 weeks in age at beginning of study.
(§4) Animals given intravenous ^14C-succinate were not kept in a fasting state. ^14C-succinate was administered by tail vein injection.
Blood and plasma were collected by cardiac puncture for terminal collection at 0.5, 1, 2, 4, 8, and 24 hours post-dose. Blood was stored on an ice block or wet ice until centrifugation to obtain plasma. Triplicate aliquots were weighed, mixed with scintillation cocktail, and counted by LSC.
(§5) Samples were analyzed for radioactivity by liquid scintillation counting (LSC) for at least 5 minutes or 100,000 cumulative counts. Samples were analyzed in triplicate.

[3] = Percentage recovery of radioactive dose (expired CO2, urine, feces, cage rinse and wipe); details: IV 10 mg/kg, Subject 1006
Description: as §1, §2, §3, §4
Following oral dosing, the tube and dose site were wiped with gauze, which was collected for subsequent radioanalysis. Following IV dosing, the needle and dose site were wiped with gauze, which was collected for subsequent radioanalysis. The dose site wipe total radioactivity was subtracted from the total dose administered, to determine dose loss, according to SOP ADME.
Urine and feces were collected at 0-24 hours post-dose and stored on wet ice. Expired CO2 was collected at 0-8 hours and 8-24 hours post-dose by drawing air through traps containing 2 N NaOH according to MPI Research SOP. Samples were stored at ambient temperature and weighed. Aliquots were submitted for radioanalysis.
At 24 hours post-dose, cages were rinsed with a 1% trisodium phosphate (TSP) solution and wiped with gauze pads. The final cage rinse samples and cage wipe samples were collected into separate appropriate containers, and the weight of each cage rinse and cage wipe were recorded.
as §5

[4] = IV 10 mg/kg, extrapolated to t = 0, mean
[5] = IV 10 mg/kg, individual Rat 598, 599, 600, 10 mg/kg
[6] = Oral 50 mg/kg, individual Rat 601, 602, 603, 50 mg/kg

Plasma concentration ([1]; IV 10 mg/kg, 0.083 hr, individual Rat 598, 599, 600, 10 mg/kg): 8050 ng/mL and 6880 ng/mL and 8410 ng/mL
Plasma concentration ([1]; IV 10 mg/kg, 0.083 hr, mean): 7780 ng/mL
Plasma concentration ([1]; IV 10 mg/kg, 0.50 hr, individual Rat 598, 599, 600, 10 mg/kg): 91.0 ng/mL and 99.8 ng/mL and 144 ng/mL
Plasma concentration ([1]; IV 10 mg/kg, 0.50 hr, mean): 112 ng/mL
Plasma concentration ([1]; IV 10 mg/kg, 1.0 hr, individual Rat 598, 599, 600, 10 mg/kg): 27.0 ng/mL and 9.43 ng/mL and 29.5 ng/mL
Plasma concentration ([1]; IV 10 mg/kg, 1.0 hr, mean): 22.0 ng/mL
Plasma concentration ([1]; IV 10 mg/kg, 2.0 hr, individual Rat 598, 599, 600, 10 mg/kg): 10.3 ng/mL and 9.06 ng/mL and 19.9 ng/mL
Plasma concentration ([1]; IV 10 mg/kg, 2.0 hr, mean): 13.1 ng/mL
Plasma concentration ([1]; IV 10 mg/kg, 4.0 hr, individual Rat 598, 599, 600, 10 mg/kg): 4.79 ng/mL and 6.25 ng/mL and 6.15 ng/mL
Plasma concentration ([1]; IV 10 mg/kg, 4.0 hr, mean): 5.73 ng/mL
tmax ([1]; IV 10 mg/kg, extrapolated to t = 0, individual Rat 598, 599, 600): 0 min
C0 [1, 4]: 20257 ng/mL
tmax [1, 4]: 0 min
MRTlast [1, 5]: 6.12 min and 5.69 min and 8.4 min
Vss [1, 5]: 0.561 L/kg and 1.65 L/kg and 0.735 L/kg
t1/2 [1, 5]: 75.6 min and 289 min and 78 min
AUClast ([1]; IV 10 mg/kg, mean): 2155 ng·h/mL
AUC∞ ([1]; IV 10 mg/kg, mean): 2176 ng·h/mL
CL ([1]; IV 10 mg/kg, mean): 76.8 ± 5.68 mL/min/kg
Dose-normalized AUC∞ ([1]; IV 10 mg/kg, mean): 218 kg·ng·h/mL/mg
MRTlast ([1]; IV 10 mg/kg, mean): 6.78 min
Vss ([1]; IV 10 mg/kg, mean): 0.982 ± 0.584 L/kg
t1/2 ([1]; IV 10 mg/kg, mean): 148 ± 122 min
Dose-normalized AUClast ([1]; IV 10 mg/kg, mean, 10 mg/kg): 215 kg·ng·h/mL/mg
Bioavailability ([1]; individual Rat 601, 602, 603): 0.726% and 0.191% and 1.64%
Bioavailability ([1]; mean): 0.854±0.735%
Plasma concentration ([1]; Oral 50 mg/kg, 0.50 hr, individual Rat 601, 602, 603, 50 mg/kg): 75.4 ng/mL and 27.8 ng/mL and 186 ng/mL
Plasma concentration ([1]; Oral 50 mg/kg, 0.50 hr, mean): 96.4 ng/mL
Plasma concentration ([1]; Oral 50 mg/kg, 1.0 hr, individual Rat 601, 602, 603, 50 mg/kg): 3.78 ng/mL and 3.00 ng/mL and 5.66 ng/mL
Plasma concentration ([1]; Oral 50 mg/kg, 1.0 hr, mean): 4.15 ng/mL
Plasma concentration ([1]; Oral 50 mg/kg, 2.0 hr, mean): 1.77 ng/mL
tmax ([1]; Oral 50 mg/kg, individual Rat 601, 602, 603): 15 min
Cmax [1, 6]: 186 ng/mL and 37.5 ng/mL and 408 ng/mL
MRTlast [1, 6]: 22.9 min and 24.2 min and 22.7 min
AUClast ([1]; Oral 50 mg/kg, mean): 92.0 ng·h/mL
Cmax ([1]; Oral 50 mg/kg, mean): 211 ± 186 ng/mL
MRTlast ([1]; Oral 50 mg/kg, mean): 23.3 min
tmax ([1]; Oral 50 mg/kg, mean): 15 min
Time post dosing at which maximum plasma concentrations were observed ([1]; PO 50 mg/kg): 15 min
SMILES: O=[13C](O)[13CH2][13CH2][13C](=O)O [^13C4-succinate]
Plasma concentration ([1]; IV 10 mg/kg, 8.0 hr, individual Rat 598, 599, 600): BLOQ (BLOQ: below the limit of quantitation (1 ng/mL))
C0 ([1]; IV 10 mg/kg, extrapolated to t = 0, individual Rat 598, 599, 600, 10 mg/kg): 21947 ng/mL and 21392 ng/mL and 17434 ng/mL
AUClast [1, 5]: 2215 ng·h/mL and 1958 ng·h/mL and 2291 ng·h/mL
AUC∞ [1, 5]: 2223 ng·h/mL and 2902 ng·h/mL and 2303 ng·h/mL
CL [1, 5]: 75 mL/min/kg and 83.3 mL/min/kg and 72.3 mL/min/kg
Dose-normalized AUClast [1, 5]: 221 kg·ng·h/mL/mg and 196 kg·ng·h/mL/mg and 229 kg·ng·h/mL/mg
Dose-normalized AUC∞ [1, 5]: 222 kg·ng·h/mL/mg and 290 kg·ng·h/mL/mg and 230 kg·ng·h/mL/mg
Dose-normalized AUClast ([1]; IV 10 mg/kg, mean, listed as 13C4-Succinate, 10 mg/kg): ^2Bioavailability determined by dividing the individual oral dose-normalized AUClast values by the average IV dose normalized AUClast value 215 hr*kg*ng/mL/mg from previous study. hr · kg · ng/mL/mg
Plasma concentration ([1]; Oral 50 mg/kg, 2.0 hr, individual Rat 601, 602, 603, 50 mg/kg): 1.29 ng/mL and BLOQ (BLOQ: below the limit of quantitation (1 ng/mL)) and 2.25 ng/mL
Plasma concentration ([1]; Oral 50 mg/kg, 4.0 hr, individual Rat 601, 602, 603): BLOQ (BLOQ: below the limit of quantitation (1 ng/mL))
Plasma concentration ([1]; Oral 50 mg/kg, 8.0 hr, individual Rat 601, 602, 603): BLOQ (BLOQ: below the limit of quantitation (1 ng/mL))
AUClast [1, 6]: 78.3 ng·h/mL and 20.6 ng·h/mL and 177 ng·h/mL
Dose-normalized AUClast [1, 6]: 1.57 kg·ng·h/mL/mg and 0.411 kg·ng·h/mL/mg and 3.54 kg·ng·h/mL/mg
Dose-normalized AUClast ([1]; Oral 50 mg/kg, mean, 50 mg/kg): 1.84 ± 1.58 kg·ng·h/mL/mg and 1.84 kg·ng·h/mL/mg
Adverse reactions ([1]; intravenous (10 mg/kg) and oral (50 mg/kg) dosing): No adverse reactions were observed

Plasma concentration of radioactive material ([2]; 30 min, Subject 1001): 2809 ng-equivalents/g
Plasma concentration of radioactive material ([2]; 1 hr, Subject 1002): 2996 ng-equivalents/g
Plasma concentration of radioactive material ([2]; 2 hr, Subject 1003): 1466 ng-equivalents/g
Plasma concentration of radioactive material ([2]; 4 hr, Subject 1004): 1158 ng-equivalents/g
Plasma concentration of radioactive material ([2]; 8 hr, Subject 1005): 813 ng-equivalents/g
Plasma concentration of radioactive material ([2]; 24 hr, Subject 1006): 511 ng-equivalents/g
Percentage recovery of radioactive dose ([3]; Cage rinse, 0-24 hr): 0.1 % recovery
Percentage recovery of radioactive dose ([3]; Cage wipe, 24 hr): 0.0 % recovery
Percentage recovery of radioactive dose ([3]; Expired trap 1, 0-8 hr (line r8)): 54.8 % recovery
Percentage recovery of radioactive dose ([3]; Expired trap 1, 0-8 hr (line r9)): 4.6 % recovery
Percentage recovery of radioactive dose ([3]; Expired trap 1, 0-8 hr (line r10)): 0.4 % recovery
Percentage recovery of radioactive dose ([3]; Expired trap 1, 0-8 hr (line r12)): 1.3 % recovery
Percentage recovery of radioactive dose ([3]; Expired trap 1, 0-8 hr (line r13)): 0.7 % recovery
Percentage recovery of radioactive dose ([3]; Expired trap 1, 0-8 hr (line r14)): 0.3 % recovery
Percentage recovery of radioactive dose ([3]; Feces, 0-24 hr): 0.2 % recovery
Percentage recovery of radioactive dose ([3]; Subtotal of expired traps (line r11)): 59.8 % recovery
Percentage recovery of radioactive dose ([3]; Subtotal of expired traps (line r15)): 2.3 % recovery
Percentage recovery of radioactive dose ([3]; Total): 65.265 % recovery
Percentage recovery of radioactive dose ([3]; Urine, 0-24 hr): 2.9 % recovery
SMILES: O=C(O)CCC(=O)O [^14C-succinate]
